Test results from PubChem BioAssay AID248 (DTP/NCI, 2004).
“And” between values parts separate entries of the source, which are not always exact repeats. Equal values may be shown once. Toxic doses and inconclusive results are not listed.

System: L1210 leukemia ip in BDF1 mice, survival T/C
Experiment: NCI In Vivo Anticancer Drug Screen. Data for tumor model L1210 Leukemia (intraperitoneal) in B6D2F1 (BDF1) mice
Details: endpoint: mean survival time, higher = longer survival
How it was run: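 Each compound was tested against a transplantable tumor grown in mice. The endpoint was survival, with treated animals benchmarked against vehicle controls as a simple ratio.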

[1] = dose: 100.0 mg/kg/injection, schedule: Q01DX009 (ip), vehicle: saline with Tween-80
[2] = dose: 100.0 mg/kg/injection, schedule: Q04DX003 (ip), vehicle: Klucel (hydroxypropylcellulose) (HPC)
[3] = dose: 200.0 mg/kg/injection, schedule: Q01DX009 (ip), vehicle: saline with Tween-80
[4] = dose: 200.0 mg/kg/injection, schedule: Q04DX003 (ip), vehicle: Klucel (hydroxypropylcellulose) (HPC)
[5] = dose: 400.0 mg/kg/injection, schedule: Q04DX003 (ip), vehicle: Klucel (hydroxypropylcellulose) (HPC)
[6] = dose: 100.0 mg/kg/injection, schedule: Q04DX003 (ip), vehicle: saline with Tween-80
[7] = dose: 200.0 mg/kg/injection, schedule: Q04DX003 (ip), vehicle: saline with Tween-80
[8] = dose: 100.0 mg/kg/injection, schedule: Q01DX009 (ip), vehicle: Klucel (hydroxypropylcellulose) (HPC)
[9] = dose: 200.0 mg/kg/injection, schedule: Q01DX009 (ip), vehicle: Klucel (hydroxypropylcellulose) (HPC)
[10] = dose: 400.0 mg/kg/injection, schedule: Q01DX009 (ip), vehicle: Klucel (hydroxypropylcellulose) (HPC)
[11] = dose: 100.0 mg/kg/injection, schedule: Q01DX001 (ip), vehicle: saline
[12] = dose: 200.0 mg/kg/injection, schedule: Q01DX001 (ip), vehicle: saline
[13] = dose: 400.0 mg/kg/injection, schedule: Q01DX001 (ip), vehicle: saline

## Cc1cc([N+](=O)[O-])cc(C)c1OC(=O)c1ccc(N=C(N)N)cc1
dose: 3.12 mg/kg/injection, schedule: Q01DX009 (ip), vehicle: saline
  T/C: 94 % of control
dose: 6.25 mg/kg/injection, schedule: Q01DX009 (ip), vehicle: saline
  T/C: 93 % of control
dose: 12.5 mg/kg/injection, schedule: Q01DX009 (ip), vehicle: saline
  T/C: 103 % of control
dose: 25.0 mg/kg/injection, schedule: Q01DX009 (ip), vehicle: saline
  T/C: 97 % of control and 107 % of control
dose: 25.0 mg/kg/injection, schedule: Q04DX003 (ip), vehicle: saline
  T/C: 111 % of control
dose: 50.0 mg/kg/injection, schedule: Q01DX009 (ip), vehicle: saline
  T/C: 103 % of control and 92 % of control
dose: 50.0 mg/kg/injection, schedule: Q04DX003 (ip), vehicle: saline
  T/C: 105 % of control
dose: 100.0 mg/kg/injection, schedule: Q04DX003 (ip), vehicle: saline
  T/C: 100 % of control

## Cc1cc(C)c([I+]c2c(C)cc(C)cc2C)c(C)c1
dose: 0.12 mg/kg/injection, schedule: Q01DX009 (ip), vehicle: saline
  T/C: 102 % of control
dose: 0.25 mg/kg/injection, schedule: Q01DX009 (ip), vehicle: saline
  T/C: 111 % of control
dose: 0.5 mg/kg/injection, schedule: Q01DX001 (ip), vehicle: saline
  T/C: 90 % of control
dose: 0.5 mg/kg/injection, schedule: Q01DX009 (ip), vehicle: saline
  T/C: 122 % of control
dose: 0.5 mg/kg/injection, schedule: Q01DX015 (ip), vehicle: saline
  T/C: 100 % of control
dose: 0.5 mg/kg/injection, schedule: Q04DX003 (ip), vehicle: acetone
  T/C: 111 % of control
dose: 1.0 mg/kg/injection, schedule: Q01DX001 (ip), vehicle: saline
  T/C: 101 % of control
dose: 1.0 mg/kg/injection, schedule: Q01DX015 (ip), vehicle: saline
  T/C: 96 % of control
dose: 2.0 mg/kg/injection, schedule: Q01DX001 (ip), vehicle: saline
  T/C: 92 % of control
dose: 2.0 mg/kg/injection, schedule: Q01DX015 (ip), vehicle: saline
  T/C: 102 % of control
dose: 4.0 mg/kg/injection, schedule: Q01DX015 (ip), vehicle: saline
  T/C: 103 % of control

## Cn1ccnc1Oc1ccc(Cl)cc1
dose: 12.5 mg/kg/injection, schedule: Q04DX002 (ip), vehicle: Klucel (hydroxypropylcellulose) (HPC)
  T/C: 106 % of control
dose: 50.0 mg/kg/injection, schedule: Q04DX002 (ip), vehicle: Klucel (hydroxypropylcellulose) (HPC)
  T/C: 100 % of control

## CCCCCCCCCCCCCCCCCCNC(=O)N1CC1
[1]
  T/C: 93 % of control
[2]
  T/C: 88 % of control
[3]
  T/C: 94 % of control
[4]
  T/C: 100 % of control
dose: 400.0 mg/kg/injection, schedule: Q01DX009 (ip), vehicle: saline with Tween-80
  T/C: 93 % of control
[5]
  T/C: 93 % of control

## CN(C)CCc1ccccc1
dose: 25.6 mg/kg/injection, schedule: Q04DX002 (ip), vehicle: saline with Tween-80
  T/C: 100 % of control
dose: 64.0 mg/kg/injection, schedule: Q04DX002 (ip), vehicle: saline with Tween-80
  T/C: 103 % of control
[1]
  T/C: 100 % of control
[6]
  T/C: 102 % of control
dose: 160.0 mg/kg/injection, schedule: Q04DX002 (ip), vehicle: saline with Tween-80
  T/C: 103 % of control
[3]
  T/C: 95 % of control
[7]
  T/C: 102 % of control
dose: 400.0 mg/kg/injection, schedule: Q04DX002 (ip), vehicle: saline with Tween-80
  T/C: 100 % of control
dose: 400.0 mg/kg/injection, schedule: Q04DX003 (ip), vehicle: saline with Tween-80
  T/C: 100 % of control

## Cc1cccc(C)c1NC(=O)Nc1ccc2c(c1)OCO2
[2]
  T/C: 93 % of control
[4]
  T/C: 92 % of control
[5]
  T/C: 88 % of control

## CCCCNC(=O)Nc1cccc(C)c1C
[8]
  T/C: 101 % of control
[2]
  T/C: 95 % of control
[9]
  T/C: 94 % of control
[4]
  T/C: 93 % of control
[10]
  T/C: 93 % of control
[5]
  T/C: 97 % of control

## Cc1cccc(Nc2nc(N)nc(N)c2N=O)c1C
dose: 100.0 mg/kg/injection, schedule: Q01DX Z (ip), vehicle: methylcellulose (MC)
  T/C: 96 % of control
dose: 200.0 mg/kg/injection, schedule: Q01DX Z (ip), vehicle: methylcellulose (MC)
  T/C: 102 % of control

## Cc1cc(C(=O)C(=O)O)c(CN2C(=O)c3ccccc3C2=O)c(=O)n1C
dose: 100.0 mg/kg/injection, schedule: Q01DX001 (ip), vehicle: saline with Tween-80
  T/C: 97 % of control
dose: 200.0 mg/kg/injection, schedule: Q01DX001 (ip), vehicle: saline with Tween-80
  T/C: 107 % of control
dose: 400.0 mg/kg/injection, schedule: Q01DX001 (ip), vehicle: saline with Tween-80
  T/C: 97 % of control

## CCCCC(=O)N/N=C\c1ccc(OCc2ccccc2)cc1
[11]
  T/C: 87 % of control
[12]
  T/C: 92 % of control
[13]
  T/C: 87 % of control

## CC(C)=NN
[11]
  T/C: 105 % of control
[12]
  T/C: 98 % of control
[13]
  T/C: 100 % of control

## Cc1cc(C)n(/N=C/c2ccccc2[N+](=O)[O-])c(=O)c1C#N
[8]
  T/C: 91 % of control
[2]
  T/C: 102 % of control
[9]
  T/C: 92 % of control
[4]
  T/C: 93 % of control
[10]
  T/C: 92 % of control
[5]
  T/C: 96 % of control

## O=P(N1CCCC1)(N1CC1)N1CC1
dose: 1.3 mg/kg/injection, schedule: Q01DX Z (ip), vehicle: carboxymethylcellulose (CMC)
  T/C: 94 % of control
dose: 2.0 mg/kg/injection, schedule: Q01DX Z (ip), vehicle: carboxymethylcellulose (CMC)
  T/C: 109 % of control
dose: 2.0 mg/kg/injection, schedule: Q01DX Z (ip), vehicle: saline
  T/C: 114 % of control and 120 % of control
dose: 3.0 mg/kg/injection, schedule: Q01DX Z (ip), vehicle: carboxymethylcellulose (CMC)
  T/C: 109 % of control
dose: 4.5 mg/kg/injection, schedule: Q01DX Z (ip), vehicle: carboxymethylcellulose (CMC)
  T/C: 160 % of control
dose: 7.5 mg/kg/injection, schedule: Q01DX Z (ip), vehicle: saline
  T/C: 118 % of control

## CCCCOP(=O)(CCl)OCCCC
[8]
  T/C: 98 % of control
[2]
  T/C: 97 % of control
[9]
  T/C: 103 % of control
[4]
  T/C: 97 % of control
[5]
  T/C: 95 % of control

## CCc1ccc2c(c1)Nc1ccccc1S2
dose: 50.0 mg/kg/injection, schedule: Q01DX009 (ip), vehicle: Klucel (hydroxypropylcellulose) (HPC)
  T/C: 97 % of control
dose: 50.0 mg/kg/injection, schedule: Q04DX003 (ip), vehicle: Klucel (hydroxypropylcellulose) (HPC)
  T/C: 91 % of control
[8]
  T/C: 97 % of control
[2]
  T/C: 96 % of control
[9]
  T/C: 101 % of control
[4]
  T/C: 97 % of control
[5]
  T/C: 86 % of control

## CC(C)(C)/C([O-])=N/[N+](C)(C)C
[11]
  T/C: 108 % of control
[12]
  T/C: 97 % of control
[13]
  T/C: 101 % of control

## Cc1ccc(Cl)c(NC(=O)Nc2cccc(F)c2)c1
[8]
  T/C: 94 % of control
[9]
  T/C: 87 % of control
[10]
  T/C: 89 % of control

## C/C(Cc1c[nH]c2ccccc12)=N/NC(N)=S
dose: 50.0 mg/kg/injection, schedule: Q01DX001 (ip), vehicle: saline
  T/C: 100 % of control
[11]
  T/C: 100 % of control

## CC1(c2cccs2)C(=O)NC(=O)N1C(=O)CCl (stereo not drawn)
[1]
  T/C: 109 % of control
[6]
  T/C: 103 % of control
[3]
  T/C: 106 % of control
[7]
  T/C: 99 % of control

## O=C1CCCCC1CO (stereo not drawn)
[8]
  T/C: 96 % of control
dose: 100.0 mg/kg/injection, schedule: Q04DX002 (ip), vehicle: Klucel (hydroxypropylcellulose) (HPC)
  T/C: 96 % of control
[9]
  T/C: 100 % of control
dose: 200.0 mg/kg/injection, schedule: Q04DX002 (ip), vehicle: Klucel (hydroxypropylcellulose) (HPC)
  T/C: 100 % of control
[10]
  T/C: 89 % of control
dose: 400.0 mg/kg/injection, schedule: Q04DX002 (ip), vehicle: Klucel (hydroxypropylcellulose) (HPC)
  T/C: 86 % of control
